{"source": "paper PMC12538274", "about": "“Paltusotine versus octreotide: different effects on radioligand uptake in neuroendocrine tumours” (Endocrine Oncology, 2025)", "key": {"SSTR1/3/4/5": {"tested_on": "SSTR1/3/4/5", "set-up": "method as in PMID 11980628", "conditions": "cited from earlier work", "excerpt": "However, according to current guidelines as well as the FDA/EMA labelling instructions regarding Lutathera®, SSA therapy needs to be discontinued before PRRT ([7], [8], [9]). These recommendations stem from the fact that both SSAs and PRRT target the SSTR2. […] Moreover, long-acting octreotide and prolonged-release lanreotide maintain platea ..."}, "SSTR2": {"tested_on": "SSTR2", "conditions": "read-out: SSTR2 binding affinity, IC50; cited from earlier work"}, "[1]": {"conditions": "cited from earlier work"}, "[2]": {"target": "T1, hSSTR2 (stable hSSTR2 over-expressing BON-1 cells, BON-1 SSTR2) (Homo sapiens, UniProt P30874)", "T1 construct": "expressed in transfected cells", "T1 sequence (P30874 whole entry)": "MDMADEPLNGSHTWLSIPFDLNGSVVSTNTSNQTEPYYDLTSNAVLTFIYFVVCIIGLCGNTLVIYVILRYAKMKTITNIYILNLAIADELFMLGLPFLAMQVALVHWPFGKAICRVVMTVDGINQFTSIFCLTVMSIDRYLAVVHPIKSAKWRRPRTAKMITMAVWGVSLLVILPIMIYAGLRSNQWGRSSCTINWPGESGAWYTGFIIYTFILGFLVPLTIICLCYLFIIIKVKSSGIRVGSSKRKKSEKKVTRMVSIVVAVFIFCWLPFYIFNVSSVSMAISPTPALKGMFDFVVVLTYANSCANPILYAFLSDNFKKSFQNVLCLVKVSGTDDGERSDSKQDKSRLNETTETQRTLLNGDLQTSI", "test": "18F-SiTATE uptake assay", "type": "cell-based"}, "BON-1 SSTR2 cells": {"tested_on": "BON-1 SSTR2 cells", "test": "Cell Titer Blue cell viability assay, BON-1 SSTR2", "type": "cell-based, human", "conditions": "72 h, vs DMSO control"}, "[3]": {"tested_on": "NCI-H727 cells (human bronchopulmonary NET)", "test": "Cell Titer Blue cell viability assay, NCI-H727", "type": "cell-based", "conditions": "72 h, vs DMSO control", "experimental": "(§1) The BON-1 (human panNET; Prof. R Göke, University of Marburg, Germany), NCI-H727 (human bronchopulmonary NET; ATCC, USA) and QGP-1 cell lines (human panNET; JCRB Cell Bank, Japan) were cultured as previously described ([15]). Moreover, a stable hSSTR2 over-expressing BON-1 cell clone (BON-1 SSTR2) was generated as previously described ([16], [17]).\n(§2) GEP-NET cell lines and primary cultures were treated for 72 h with either paltusotine or octreotide, and dimethyl sulfoxide (DMSO) was used as control. Cell Titer Blue® cell viability assay (Promega, USA) was then performed as previously described ([15], [21]). Each experiment included 3–4 samples per drug concentration and patient. Cell line experiments were performed at least three times."}, "[4]": {"tested_on": "patient-derived GEP-NET primary cultures", "test": "Cell Titer Blue cell viability assay, patient-derived GEP-NET primary cultures", "type": "cell-based, human", "conditions": "72 h, n = 5", "excerpt": "Fresh patient-derived GEP-NET primary cultures were established from surgically-derived patient tumours as previously described ([18]). […] Eleven of these were metastatic GEP-NETs, including six […] = 2 with the carcinoid syndrome) and eight […]. The use of primary tumour tissue as part of NeoExNET was approved by the Ethics Committee of LMU Munich (project number 152-10) and by the Cantonal Ethics Committee Zurich (reference number BASEC 2017-00950). […] GEP-NET cell lines and primary cultures were treated for 72 h with either paltusotine or octreotide, and dimethyl sulfoxide (DMSO) was used as control. Cell Titer Blue® cell viability assay (Promega, USA) was then performed as previously described ([15], [21]). […] Cell line experiments were performed at least three times."}, "[5]": {"tested_on": "forskolin-stimulated cAMP accumulation", "set-up": "method as in PMID 36810324", "conditions": "read-out: Inhibition of forskolin-stimulated cAMP accumulation, EC50; cited from earlier work"}, "[6]": {"tested_on": "SSTR2 on the cell surface of HEK293 cells", "set-up": "method as in PMID 36810324", "conditions": "cited from earlier work", "excerpt": "(§3) While G-protein (GP)- and arrestin (ARRB)-mediated effects are induced by full SSTR2 agonists such as octreotide ([35]), biased agonists with GP-mediated effects but diminished ARRB signalling have been reported ([35]). Arrestins play an important role in SSTR internalisation and recycling/degradation ([35]). Zhao et al. compared the molecular binding structure of octreotide and paltusotine to SSTR2 and their molecular signalling, examined β-arrestin recruitment and SSTR2 internalisation/loss of SSTR2 expression on the cell surface of HEK293 cells ([34])."}, "[7]": {"tested_on": "β-arrestin recruitment (SSTR2, HEK293 cells)", "set-up": "method as in PMID 36810324", "conditions": "cited from earlier work", "excerpt": "as §3"}, "[8]": {"tested_on": "QGP-1 cells (human panNET)", "test": "Cell Titer Blue cell viability assay, QGP-1", "type": "cell-based", "conditions": "72 h, vs DMSO control", "experimental": "as §1, §2"}, "[9]": {"conditions": "cited from earlier work", "excerpt": "Paltusotine is currently being investigated in a randomised phase 2 trial in NET patients with the carcinoid syndrome (NCT05361668), with promising preliminary results ([13]), and a phase 3 trial is currently being planned ([14]). […] Recently, paltusotine received FDA approval for the treatment of patients with acromegaly ([11], [12]).", "remark": "listed apart in the source"}, "[10]": {"tested_on": "BON-1 cells (human panNET)", "test": "Cell Titer Blue cell viability assay, BON-1", "type": "cell-based", "conditions": "72 h, vs DMSO control", "experimental": "as §1, §2"}, "[11]": {"tested_on": "NET patients with the carcinoid syndrome", "conditions": "preliminary results, phase 2, NET patients with carcinoid syndrome; cited from earlier work", "excerpt": "A newly developed, orally-bioavailable non-peptide SSTR2 agonist, paltusotine, might simplify SSA therapy and is taken orally once daily ([10]). Paltusotine recently received FDA approval for acromegaly treatment based on data from two phase 3 trials ([…]-1 and […]-2/NCT05192382) ([11], [12])."}, "pituitary tumour cells": {"tested_on": "pituitary tumour cells", "set-up": "method as in PMID 36810324", "conditions": "compared to octreotide; cited from earlier work"}}, "note": "Read-outs that look alike come from different tables or passages of the source.", "data": [{"molecule": "lanreotide", "values": [{"measurement": "Binding affinity to SSTR1/3/4/5", "setting": "SSTR1/3/4/5", "result": "reduced or no binding affinity"}, {"measurement": "IC50", "setting": "SSTR2", "result": 0.54, "unit": "nM"}]}, {"molecule": "C[C@@H](O)[C@@H]1NC(=O)[C@H](CCCCN)NC(=O)[C@@H](Cc2c[nH]c3ccccc23)NC(=O)[C@H](Cc2ccccc2)NC(=O)[C@@H](NC(=O)[C@H](N)Cc2ccccc2)CSSC[C@@H](C(=O)N[C@H](CO)[C@@H](C)O)NC1=O", "note": "[octreotide]", "values": [{"measurement": "Plasma concentrations", "setting": "[1]; subcutaneous injections, humans", "result": "up to 4 nM"}]}, {"molecule": "somatostatin", "values": [{"measurement": "IC50", "setting": "SSTR2", "result": 0.15, "unit": "nM"}]}, {"molecule": "N#Cc1cccc(-c2ccc3ncc(-c4cc(F)cc(F)c4)c(N4CCC(N)CC4)c3c2)c1O", "note": "[paltusotine]", "values": [{"measurement": "Plasma concentrations", "setting": "[1]; in vivo", "result": "22 to 406", "unit": "nM"}, {"measurement": "Effect on 18F-SiTATE radioligand uptake compared to the unblocked control", "setting": "[2]; 73–254 nM (1,000×) and 146–508 nM (2,000×)", "result": "no significant effects on cellular uptake"}, {"measurement": "Effect on 18F-SiTATE radioligand uptake compared to the unblocked control", "setting": "[2]; low, clinically-relevant concentrations 7.3–25.4 nM (100×)", "result": "no influence on radioligand binding compared to the unblocked control"}, {"measurement": "Effect on cell viability", "setting": "BON-1 SSTR2 cells; BON-1 SSTR2, 4 nM", "result": "overall no anti-tumour effects"}, {"measurement": "Effect on cell viability", "setting": "BON-1 SSTR2 cells; BON-1 SSTR2, 400 nM", "result": "not found"}, {"measurement": "Effect on cell viability", "setting": "[3]; NCI-H727, 4 nM", "result": "overall no anti-tumour effects"}, {"measurement": "Effect on cell viability", "setting": "[3]; NCI-H727, 400 nM", "result": "not found"}, {"measurement": "Overall effect on cell viability", "setting": "[4]; 100 nM", "result": "overall slight anti-tumour effects"}, {"measurement": "Overall effect on cell viability", "setting": "[4]; 500 nM", "result": "overall slight anti-tumour effects"}, {"measurement": "EC50", "setting": "[5]", "result": "2.08 ± 1.39", "unit": "nM"}, {"measurement": "SSTR2 internalisation/desensitisation", "setting": "[6]", "result": "less SSTR2 internalisation/desensitisation"}, {"measurement": "β-arrestin recruitment", "setting": "[7]", "result": "much lower β-arrestin recruitment"}, {"measurement": "Effect on cell viability", "setting": "[8]; QGP-1, 4 nM", "result": "overall no anti-tumour effects"}, {"measurement": "Effect on cell viability", "setting": "[8]; QGP-1, 400 nM", "result": "slight, significant decrease in cell viability"}, {"measurement": "Oral bioavailability", "setting": "[9]", "result": "good oral bioavailability"}, {"measurement": "Effect on cell viability", "setting": "[10]; BON-1, 4 nM", "result": "overall no anti-tumour effects"}, {"measurement": "Effect on cell viability", "setting": "[10]; BON-1, 400 nM", "result": "slight, significant increase in viability"}, {"measurement": "IC50", "setting": "SSTR2", "result": 0.25, "unit": "nM"}, {"measurement": "Symptom control", "setting": "[11]", "result": "improved symptom control"}, {"measurement": "Tolerability", "setting": "[11]", "result": "good tolerability"}, {"measurement": "Apoptotic rate", "setting": "pituitary tumour cells", "result": "increased apoptotic rate compared to octreotide"}]}]}
